ChEMBL document CHEMBL5143526, “Acridine-O6-benzylguanine hybrids: Synthesis, DNA binding, MGMT inhibition and antiproliferative activity” (Eur J Med Chem, 2022)
Calls of active or inactive are those of the source. The rule behind the calls is not given here.

System: Calf thymus DNA
Assay: Binding affinity to calf thymus DNA assessed as ligand-induced thermal stabilization of DNA duplex by measuring change in melting temperature at 6.25 uM by thermal denaturation analysis
Type: nucleic-acid assay
Conditions: Bos taurus

Which ΔTm does the source give for `COc1ccc2nc3cc(Cl)ccc3c(NCCOCCOCCn3cnc4c(OCc5ccccc5)nc(N)nc43)c2c1` here?
The ΔTm was -1.4 °C.

With `COc1ccc2nc3cc(Cl)ccc3c(NCCOCCOCC(=O)NCc3cccc(COc4nc(N)nc5[nH]cnc45)c3)c2c1` as the compound, how does the ΔTm read?
The ΔTm was -0.7 °C.

With `COc1ccc2nc3cc(Cl)ccc3c(NCCCCCCCC(=O)NCc3cccc(COc4nc(N)nc5[nH]cnc45)c3)c2c1` as the compound, how does the ΔTm read?
The ΔTm was 0.2 °C.

System: T98G
Assay: Additive antiproliferative activity against human T98G cells assessed as reduction in cell viability at GI50 pretreated for 2 hrs followed by TMZ addition at 188 uM and measured after 94 hrs by CellTiter-Glo luminescent cell viability assay
Type: functional, cell-based
Conditions: not given

With `COc1ccc2nc3cc(Cl)ccc3c(NCCOCCOCCn3cnc4c(OCc5ccccc5)nc(N)nc43)c2c1` as the compound, how does the Activity read?
Its Activity is “Active”.

For `COc1ccc2nc3cc(Cl)ccc3c(NCCCCCCCC(=O)NCc3cccc(COc4nc(N)nc5[nH]cnc45)c3)c2c1`, which Activity is on record?
The Activity was “Active”.

System: T98G
Assay: Antagonistic antiproliferative activity against human T98G cells assessed as reduction in cell viability at GI50 pretreated for 2 hrs followed by TMZ addition at 375 uM and measured after 94 hrs by CellTiter-Glo luminescent cell viability assay
Type: functional, cell-based
Conditions: time 96.0 hrs

For `COc1ccc2nc3cc(Cl)ccc3c(NCCOCCOCC(=O)NCc3cccc(COc4nc(N)nc5[nH]cnc45)c3)c2c1`, which Activity is on record?
Its Activity is “Active”.

With `COc1ccc2nc3cc(Cl)ccc3c(NCCCCCCCC(=O)NCc3cccc(COc4nc(N)nc5[nH]cnc45)c3)c2c1` as the compound, how does the Activity read?
The Activity was “Active”.

System: not listed separately
Assay: Fluorescence property of compound in aqueous solution assessed as quantum yield
Type: physicochemical
Conditions: buffer

Which Activity does the source give for `COc1ccc2nc3cc(Cl)ccc3c(NCCOCCOCCn3cnc4c(OCc5ccccc5)nc(N)nc43)c2c1` here?
The Activity was less than 0.01.

With `COc1ccc2nc3cc(Cl)ccc3c(NCCOCCOCC(=O)NCc3cccc(COc4nc(N)nc5[nH]cnc45)c3)c2c1` as the compound, how does the Activity read?
The Activity was 0.01.

With `COc1ccc2nc3cc(Cl)ccc3c(NCCCCCCCC(=O)NCc3cccc(COc4nc(N)nc5[nH]cnc45)c3)c2c1` as the compound, how does the Activity read?
Its Activity is 0.01.

System: T98G
Assay: Synergistic antiproliferative activity against human T98G cells assessed as reduction in cell viability at GI50 pretreated for 2 hrs followed by TMZ addition at 375 uM and measured after 94 hrs by CellTiter-Glo luminescent cell viability assay
Type: functional, cell-based
Conditions: time 96.0 hrs

With `COc1ccc2nc3cc(Cl)ccc3c(NCCOCCOCCn3cnc4c(OCc5ccccc5)nc(N)nc43)c2c1` as the compound, how does the Activity read?
Its Activity is “Active”.

System: T98G
Assay: Antagonistic antiproliferative activity against human T98G cells assessed as reduction in cell viability at GI50 pretreated for 2 hrs followed by TMZ addition at 188 uM and measured after 94 hrs by CellTiter-Glo luminescent cell viability assay
Type: functional, cell-based
Conditions: time 96.0 hrs

Which Activity does the source give for `COc1ccc2nc3cc(Cl)ccc3c(NCCOCCOCC(=O)NCc3cccc(COc4nc(N)nc5[nH]cnc45)c3)c2c1` here?
Its Activity is “Active”.

System: not listed separately
Assay: Fluorescence property of compound in MeCN assessed as quantum yield
Type: physicochemical
Conditions: not given

Which Activity does the source give for `COc1ccc2nc3cc(Cl)ccc3c(NCCOCCOCCn3cnc4c(OCc5ccccc5)nc(N)nc43)c2c1` here?
Its Activity is 0.09.

For `COc1ccc2nc3cc(Cl)ccc3c(NCCOCCOCC(=O)NCc3cccc(COc4nc(N)nc5[nH]cnc45)c3)c2c1`, which Activity is on record?
Its Activity is 0.05.

With `COc1ccc2nc3cc(Cl)ccc3c(NCCCCCCCC(=O)NCc3cccc(COc4nc(N)nc5[nH]cnc45)c3)c2c1` as the compound, how does the Activity read?
The Activity was 0.04.

System: T98G
Assay: Synergistic antiproliferative activity against human T98G cells assessed as reduction in cell viability at GI50 pretreated for 2 hrs followed by TMZ addition at 94 uM and measured after 94 hrs by CellTiter-Glo luminescent cell viability assay
Type: functional, cell-based
Conditions: time 96.0 hrs

With `COc1ccc2nc3cc(Cl)ccc3c(NCCOCCOCCn3cnc4c(OCc5ccccc5)nc(N)nc43)c2c1` as the compound, how does the Activity read?
The Activity was “Active”.

System: Calf thymus DNA
Assay: Binding affinity to calf thymus DNA assessed as intercalation by measuring dissociation constant at 20 uM measured after 5 mins by UV-Vis spectrophotometric titration analysis
Type: nucleic-acid assay, Bos taurus
Conditions: not given

With `COc1ccc2nc3cc(Cl)ccc3c(NCCOCCOCCn3cnc4c(OCc5ccccc5)nc(N)nc43)c2c1` as the compound, how does the Kd read?
Its Kd is 13.4 µM.

With `COc1ccc2nc3cc(Cl)ccc3c(NCCOCCOCC(=O)NCc3cccc(COc4nc(N)nc5[nH]cnc45)c3)c2c1` as the compound, how does the Kd read?
The Kd was 23.4 µM.

With `COc1ccc2nc3cc(Cl)ccc3c(NCCCCCCCC(=O)NCc3cccc(COc4nc(N)nc5[nH]cnc45)c3)c2c1` as the compound, how does the Kd read?
Its Kd is 14.3 µM.

System: not listed separately
Assay: Fluorescence property of compound in THF assessed as quantum yield
Type: physicochemical
Conditions: not given

For `COc1ccc2nc3cc(Cl)ccc3c(NCCOCCOCCn3cnc4c(OCc5ccccc5)nc(N)nc43)c2c1`, which Activity is on record?
Its Activity is 0.09.

Which Activity does the source give for `COc1ccc2nc3cc(Cl)ccc3c(NCCOCCOCC(=O)NCc3cccc(COc4nc(N)nc5[nH]cnc45)c3)c2c1` here?
The Activity was 0.06.

Which Activity does the source give for `COc1ccc2nc3cc(Cl)ccc3c(NCCCCCCCC(=O)NCc3cccc(COc4nc(N)nc5[nH]cnc45)c3)c2c1` here?
The Activity was 0.06.

System: not listed separately
Assay: Thermal stability of compound in aqueous solution at 10 uM at 20 to 75 degreeC by UV-vis absorption spectroscopy
Type: physicochemical
Conditions: buffer

Which Stability does the source give for `COc1ccc2nc3cc(Cl)ccc3c(NCCOCCOCCn3cnc4c(OCc5ccccc5)nc(N)nc43)c2c1` here?
The Stability was “Stable”.

For `COc1ccc2nc3cc(Cl)ccc3c(NCCOCCOCC(=O)NCc3cccc(COc4nc(N)nc5[nH]cnc45)c3)c2c1`, which Stability is on record?
The Stability was “Stable”.

With `COc1ccc2nc3cc(Cl)ccc3c(NCCCCCCCC(=O)NCc3cccc(COc4nc(N)nc5[nH]cnc45)c3)c2c1` as the compound, how does the Stability read?
The Stability was “Stable”.

System: not listed separately
Assay: Fluorescence property of compound in MeOH assessed as quantum yield
Type: physicochemical
Conditions: not given

With `COc1ccc2nc3cc(Cl)ccc3c(NCCOCCOCCn3cnc4c(OCc5ccccc5)nc(N)nc43)c2c1` as the compound, how does the Activity read?
Its Activity is 0.06.

Which Activity does the source give for `COc1ccc2nc3cc(Cl)ccc3c(NCCOCCOCC(=O)NCc3cccc(COc4nc(N)nc5[nH]cnc45)c3)c2c1` here?
Its Activity is 0.06.

With `COc1ccc2nc3cc(Cl)ccc3c(NCCCCCCCC(=O)NCc3cccc(COc4nc(N)nc5[nH]cnc45)c3)c2c1` as the compound, how does the Activity read?
Its Activity is 0.06.

System: T98G
Assay: Additive antiproliferative activity against human T98G cells assessed as reduction in cell viability at 25 uM pretreated for 2 hrs followed by TMZ addition at 94 uM and measured after 94 hrs by CellTiter-Glo luminescent cell viability assay
Type: functional, cell-based
Conditions: time 96.0 hrs

With `COc1ccc2nc3cc(Cl)ccc3c(NCCOCCOCC(=O)NCc3cccc(COc4nc(N)nc5[nH]cnc45)c3)c2c1` as the compound, how does the Activity read?
The Activity was “Active”.

With `COc1ccc2nc3cc(Cl)ccc3c(NCCCCCCCC(=O)NCc3cccc(COc4nc(N)nc5[nH]cnc45)c3)c2c1` as the compound, how does the Activity read?
The Activity was “Active”.

System: T98G
Assay: Antiproliferative activity against human T98G cells assessed as cell growth inhibition incubated for 96 hrs by CellTiter-Glo luminescent cell viability assay
Type: functional
Conditions: not given

Which GI50 does the source give for `COc1ccc2nc3cc(Cl)ccc3c(NCCOCCOCCn3cnc4c(OCc5ccccc5)nc(N)nc43)c2c1` here?
The GI50 was 2.1 µM.

For `COc1ccc2nc3cc(Cl)ccc3c(NCCOCCOCC(=O)NCc3cccc(COc4nc(N)nc5[nH]cnc45)c3)c2c1`, which GI50 is on record?
Its GI50 is 25 µM.

Which GI50 does the source give for `COc1ccc2nc3cc(Cl)ccc3c(NCCCCCCCC(=O)NCc3cccc(COc4nc(N)nc5[nH]cnc45)c3)c2c1` here?
The GI50 was 19.4 µM.
